Experimental data from ChEMBL document CHEMBL4118193, “1,2,3,4,6-Penta-O-galloyl-β-d-glucose suppresses colon cancer through induction of tumor suppressor” (Bioorg Med Chem Lett, 2018).
Active and inactive are the calls of the source. The rule behind the calls is not given here.

What was measured:
HT-29 [1] = test: Antiproliferative activity against human HT-29 cells at 1 to 10 uM after 48 hrs by CytoTox-96 non-radioactive assay; type: functional, cell-based
HCT-116 [2] = test: Anticlonogenic activity against human HCT116 cells assessed as inhibition of colony formation after 4 to 5 days by crystal violet staining-based assay; type: functional, cell-based
HCT-116 [3] = test: Cell cycle arrest in human HCT116 cells assessed as accumulation at G0/G1 phase at 2.5 uM after 48 hrs (reference value: 38.5%); type: functional
HCT-116 [4] = test: Cell cycle arrest in human HCT116 cells assessed as accumulation at G0/G1 phase at 5 uM after 48 hrs (reference value: 38.5%); type: functional
HCT-116 [5] = test: Cell cycle arrest in human HCT116 cells assessed as accumulation at G2/M phase at 5 uM after 48 hrs (reference value: 21.5%); type: functional
HCT-116 [6] = test: Cell cycle arrest in human HCT116 cells assessed as accumulation at G2/M phase at 10 uM after 48 hrs (reference value: 21.5%); type: functional
HT-29 [7] = test: Cell cycle arrest in human HT-29 cells assessed as accumulation at G0/G1 phase at 1 uM after 48 hrs (reference value: 53.9%); type: functional
HT-29 [8] = test: Cell cycle arrest in human HT-29 cells assessed as accumulation at S phase at 1 uM after 48 hrs (reference value: 9.7%); type: functional
HT-29 [9] = test: Cell cycle arrest in human HT-29 cells assessed as accumulation at G2/M phase at 1 uM after 48 hrs (reference value: 14.7%); type: functional
HT-29 [10] = test: Cell cycle arrest in human HT-29 cells assessed as accumulation at G2/M phase at 5 uM after 48 hrs (reference value: 14.7%); type: functional
HCT-116 [11] = test: Induction of apoptosis in human HCT116 cells assessed as live cells at 5 uM after 48 hrs by Annexin-V and dead cell assay (reference value: 96.75%); type: functional
HCT-116 [12] = test: Induction of apoptosis in human HCT116 cells assessed as live cells at 10 uM after 48 hrs by Annexin-V and dead cell assay (reference value: 96.75%); type: functional
HCT-116 [13] = test: Induction of apoptosis in human HCT116 cells assessed as early apoptotic cells at 1 uM after 48 hrs by Annexin-V and dead cell assay (reference value: 1.70%); type: functional
HCT-116 [14] = test: Induction of apoptosis in human HCT116 cells assessed as early apoptotic cells at 5 uM after 48 hrs by Annexin-V and dead cell assay (reference value: 1.70%); type: functional
HCT-116 [15] = test: Induction of apoptosis in human HCT116 cells assessed as late apoptotic cells at 5 uM after 48 hrs by Annexin-V and dead cell assay (reference value: 1.45%); type: functional
HCT-116 [16] = test: Induction of apoptosis in human HCT116 cells assessed as late apoptotic cells at 10 uM after 48 hrs by Annexin-V and dead cell assay (reference value: 1.45%); type: functional
HCT-116 [17] = test: Induction of apoptosis in human HCT116 cells assessed as necrotic cells at 1 uM after 48 hrs by Annexin-V and dead cell assay (reference value: 0.10%); type: functional
HCT-116 [18] = test: Induction of apoptosis in human HCT116 cells assessed as necrotic cells at 5 uM after 48 hrs by Annexin-V and dead cell assay (reference value: 0.10%); type: functional
HCT-116 [19] = test: Induction of apoptosis in human HCT116 cells after 48 hrs by Annexin-V and dead cell assay; type: functional, cell-based
HCT-116 [20] = test: Induction of apoptosis in human HCT116 cells assessed as in p53 protein level at 5 uM after 48 hrs by Western blot method relative to beta-actin; type: functional
HCT-116 [21] = test: Induction of apoptosis in human HCT116 cells assessed as p21 protein level at 2.5 uM after 48 hrs by Western blot method relative to beta-actin; type: functional
HCT-116 [22] = test: Induction of apoptosis in human HCT116 cells assessed as p21 protein level at 10 uM after 48 hrs by Western blot method relative to beta-actin; type: functional
HCT-116 [23] = test: Induction of apoptosis in human HCT116 cells assessed as cyclin E protein level at 1 uM after 48 hrs by Western blot method relative to beta-actin; type: functional
HCT-116 [24] = test: Induction of apoptosis in human HCT116 cells assessed as cyclin E protein level at 10 uM after 48 hrs by Western blot method relative to beta-actin; type: functional
HCT-116 [25] = test: Induction of apoptosis in human HCT116 cells assessed as CDK2 protein level at 10 uM after 48 hrs by Western blot method relative to beta-actin; type: functional
HCT-116 [26] = test: Induction of apoptosis in human HCT116 cells assessed as Bcl-2 protein level at 5 uM after 48 hrs by Western blot method relative to beta-actin; type: functional
HCT-116 [27] = test: Induction of apoptosis in human HCT116 cells assessed as Bcl-2 protein level at 10 uM after 48 hrs by Western blot method relative to beta-actin; type: functional
HCT-116 [28] = test: Induction of apoptosis in human HCT116 cells assessed as cleaved caspase-3 protein level at 2.5 uM after 48 hrs by Western blot method relative to caspase-3; type: functional
HCT-116 [29] = test: Induction of apoptosis in human HCT116 cells assessed as caspase-3 protein level at 1 uM after 48 hrs by Western blot method relative to beta-actin; type: functional
HCT-116 [30] = test: Induction of apoptosis in human HCT116 cells assessed as caspase-3 protein level at 10 uM after 48 hrs by Western blot method relative to beta-actin; type: functional
HT-29 [31] = test: Induction of apoptosis in human HT-29 cells assessed as p53 protein level at 1 uM after 48 hrs by Western blot method relative to beta-actin; type: functional
HT-29 [32] = test: Induction of apoptosis in human HT-29 cells assessed as in p53 protein level at 5 uM after 48 hrs by Western blot method relative to beta-actin; type: functional
HT-29 [33] = test: Induction of apoptosis in human HT-29 cells assessed as in p53 protein level at 10 uM after 48 hrs by Western blot method relative to beta-actin; type: functional
HT-29 [34] = test: Induction of apoptosis in human HT-29 cells assessed as in p21 protein level at 5 uM after 48 hrs by Western blot method relative to beta-actin; type: functional
HT-29 [35] = test: Induction of apoptosis in human HT-29 cells assessed as cyclin E protein level at 2.5 uM after 48 hrs by Western blot method relative to beta-actin; type: functional
HT-29 [36] = test: Induction of apoptosis in human HT-29 cells assessed as CDK2 protein level at 10 uM after 48 hrs by Western blot method relative to beta-actin; type: functional
HT-29 [37] = test: Induction of apoptosis in human HT-29 cells assessed as Bcl-2 protein level at 1 uM after 48 hrs by Western blot method relative to beta-actin; type: functional
HT-29 [38] = test: Induction of apoptosis in human HT-29 cells assessed as cleaved caspase-3 protein level at 2.5 uM after 48 hrs by Western blot method relative to caspase-3; type: functional
HT-29 [39] = test: Induction of apoptosis in human HT-29 cells assessed as cleaved caspase-3 protein level at 5 uM after 48 hrs by Western blot method relative to caspase-3; type: functional
HT-29 [40] = test: Induction of apoptosis in human HT-29 cells assessed as caspase-3 protein level at 10 uM after 48 hrs by Western blot method relative to beta-actin; type: functional
HCT-116 [41] = test: Cytotoxicity against human HCT116 cells assessed as reduction in cell viability by MTT assay; type: functional, cell-based

O=C(OC[C@H]1O[C@@H](OC(=O)c2cc(O)c(O)c(O)c2)[C@H](OC(=O)c2cc(O)c(O)c(O)c2)[C@@H](OC(=O)c2cc(O)c(O)c(O)c2)[C@@H]1OC(=O)c1cc(O)c(O)c(O)c1)c1cc(O)c(O)c(O)c1 [PENTAGALLOYL GLUCOSE]
Activity (HT-29 [1]): Active | Activity (HCT-116 [2]): Dose-dependent effect | Activity (HCT-116 [3]): 34% | Activity (HCT-116 [4]): 17.9% | Activity (HCT-116 [5]): 20.9% | Activity (HCT-116 [6]): 18.1% | Activity (HT-29 [7]): 51.3% | Activity (HT-29 [8]): 12.7% | Activity (HT-29 [9]): 14.8% | Activity (HT-29 [10]): 16.3% | Activity (HCT-116 [11]): 93.35% | Activity (HCT-116 [12]): 90.45% | Activity (HCT-116 [13]): 1% | Activity (HCT-116 [14]): 1.85% | Activity (HCT-116 [15]): 4.35% | Activity (HCT-116 [16]): 6.1% | Activity (HCT-116 [17]): 0.1% | Activity (HCT-116 [18]): 0.45% | Activity (HCT-116 [19]): Dose-dependent effect | fold change (FC) (HCT-116 [20]): 4.9 | fold change (FC) (HCT-116 [21]): 1.4 | fold change (FC) (HCT-116 [22]): 1.6 | fold change (FC) (HCT-116 [23]): 1.8 | fold change (FC) (HCT-116 [24]): 0.5 | fold change (FC) (HCT-116 [25]): 0.3 | fold change (FC) (HCT-116 [26]): 1.2 | fold change (FC) (HCT-116 [27]): 0.7 | fold change (FC) (HCT-116 [28]): 1.8 | fold change (FC) (HCT-116 [29]): 29.6 | fold change (FC) (HCT-116 [30]): 488.4 | fold change (FC) (HT-29 [31]): 0.7 | fold change (FC) (HT-29 [32]): 3 | fold change (FC) (HT-29 [33]): 6 | fold change (FC) (HT-29 [34]): 1.8 | fold change (FC) (HT-29 [35]): 0.9 | fold change (FC) (HT-29 [36]): 0.8 | fold change (FC) (HT-29 [37]): 0.7 | fold change (FC) (HT-29 [38]): 6 | fold change (FC) (HT-29 [39]): 7 | fold change (FC) (HT-29 [40]): 5.8 | IC50 (HCT-116 [41]): 1610 nM
